# From patent US20020028836A1, “Potassium channel openers” (priority 2000, published 2002)
# pEC50: −log10 of the molar value. Where two headings read alike, the source gives them in different places.
# System: tissue strips obtained from Landrace pig bladders
# Assay: Functional potassium channel opening activity in isolated bladder strips (field-stimulated twitch)
# Details: for Index: ED50 for P1075 divided by ED50 for the test agonist in a given tissue, averaged; for pEC50: amount of agent necessary to cause 50% of the agent's maximal response, read-out: ED50 (the source's name); for Emax / Efficacy (% P1075): maximal efficacy relative to P1075, field stimulation 0.05 Hz, 0.5 ms, 20 volts
# Experimental: Compounds were evaluated for functional potassium channel opening activity using tissue strips obtained from Landrace pig bladders.
# Landrace pig bladders were obtained from female Landrace pigs of 9-30 kg. Landrace pigs were euthanized with an intraperitoneal injection of pentobarbital solution, Somlethal®, J. A. Webster Inc., Sterling, Mass. The entire bladder was removed and immediately placed into Krebs Ringer bicarbonate solution (composition, mM: NaCl, 120; NaHCO3, 20; dextrose, 11; KCl, 4.7; CaCl2, 2.5; MgSO4, 1.5; KH2PO4, 1.2; K2EDTA, 0.01, equilibrated with 5% CO2/95% O2pH 7.4 at 37° C.). Propranolol (0.004 mM) was included in all of the assays to block β-adrenoceptors. The trigonal and dome portions were discarded. Strips 3-5 mm wide and 20 mm long were prepared from the remaining tissue cut in a circular fashion. The mucosal layer was removed. One end was fixed to a stationary glass rod and the other to a Grass FT03 transducer at a basal preload of 1.0 gram. Two parallel platinum electrodes were included in the stationary glass rod to provide field stimulation of 0.05 Hz, 0.5 milli-seconds at 20 volts. This low frequency stimulation produced a stable twitch response of 100-500 centigrams. Tissues were allowed to equilibrate for at least 60 minutes and primed with 80 mM KCl. A control concentration response curve (cumulative) was generated for each tissue using the potassium channel opener P1075 as the control agonist. […] After a 60 minute rinsing period, a concentration response curve (cumulative) was generated for the test agonist in the same fashion as that used for the control agonist P1075. The maximal efficacy of each compound (expressed as % relative to P1075) is reported. The amount of agent necessary to cause 50% of the agent's maximal response (ED50) was calculated using “ALLFIT” (DeLean et al., Am. J. Physiol., 235, E97 (1980)), hereby incorporated by reference. Agonist potencies were also expressed as an index relative to P1075. The index was calculated by dividing the ED50 for P1075 by the ED50 for the test agonist in a given tissue. Each tissue was used for only one test agonist, and the indices obtained from each tissue were averaged to provide an average index of potency.
SMILES,pEC50 (Sus scrofa),pEC50,Index,Emax (Sus scrofa) [%],Efficacy (% P1075),"stimulated twitch / stimulated contractions of the bladder (P1075: 10^−9 to 10^−5 M, cumulative, ½ log increments)"
"CC(Cl)(Cl)C(NC(=O)c1cccc(Cl)c1)NC(=NC#N)Nc1cccnc1 (stereo not shown) [Example 119, 3-chloro-N-(2,2-dichloro-1-{[(cyanoimino)(3-pyridinylamino)methyl]amino}propyl)benzamide]",5.47,,0.939,78,,
"CC(C)(C)C(NC(=O)c1cc(F)cc(F)c1)NC(=NC#N)Nc1cccnc1 (stereo not shown) [Example 110, N-(1-{[(cyanoimino)(3-pyridinylamino)methyl]amino}-2,2-dimethylpropyl)-3,5-difluorobenzamide]",5.21,,0.017,61,,
"CC(C)(C)CC(NC(=O)c1ccc(Cl)cc1)NC(=NS(=O)(=O)C(F)(F)F)Nc1cccnc1 (stereo not shown) [Example 142, 4-chloro-N-{3,3-dimethyl-1-[((3-pyridinylamino){[(trifluoromethyl)sulfonyl]imino}methyl)amino]butyl}benzamide]",,6.22,0.270,,44,
"CC(Cl)(Cl)C(NC(=O)c1cccc(F)c1)NC(=NC#N)Nc1ccc(Cl)nc1 (stereo not shown) [Example 156, N-(2,2-dichloro-1-{[[(6-chloro-3-pyridinyl)amino](cyanoimino)methyl]amino}propyl)-3-fluorobenzamide]",5.40,,0.048,93,,
"CC(Cl)(Cl)C(NC(=O)c1ccc(Cl)cc1)NC(=NC#N)Nc1ccc(Cl)nc1 (single isomer, unassigned; (-)) [Example 161, (−) 4-chloro-N-(2,2-dichloro-1-{[[(6-chloro-3-pyridinyl)amino](cyanoimino)methyl]amino}propyl)benzamide]",,5.40,0.108,,93,
"CC(Cl)(Cl)C(NC(=O)c1ccc(Cl)cc1)NC(=NC#N)Nc1cccnc1 (single isomer, unassigned; (-)) [Example 117, (−) 4-chloro-N-(2,2-dichloro-1-{[(cyanoimino)(3-pyridinylamino)methyl]amino}propyl)benzamide]",,5.24,0.030,,79,
"CC(C)(C)C(NC(=O)c1ccc(Cl)cc1)NC(=NC#N)Nc1cnc2ccccc2c1 (stereo not shown) [Example 83, 4-chloro-N-(1-{[(cyanoimino)(3-guinolinylamino)methyl]amino}-2,2-dimethylpropyl)benzamide]",,5.55,0.031,,62,
"CC(Cl)(Cl)C(NC(=O)c1cc(F)cc(F)c1)NC(=NC#N)Nc1cccnc1 (stereo not shown) [Example 120, N-(2,2-dichloro-1-{[(cyanoimino)(3-pyridinylamino)methyl]amino}propyl)-3,5-difluorobenzamide]",5.12,,0.017,84,,
"CC(Cl)(Cl)C(NC(=O)c1ccc(Cl)cc1)NC(=NC#N)Nc1cccnc1 (single isomer, unassigned; (+)) [Example 118, (+) 4-chloro-N-(2,2-dichloro-1-{[(cyanoimino)(3-pyridinylamino)methyl]amino}propyl)benzamide]",,4.66,0.006,,69,
"CCC(C)(C)N=C(NC#N)Nc1cccnc1 [Example P1075, reference compound]",,,,,,completely eliminated the stimulated twitch
"CC(Cl)(Cl)C(NC(=O)c1ccc(Cl)cc1)NC(=NC#N)Nc1ccc(C(F)(F)F)nc1 (stereo not shown) [Example 158, 4-chloro-N-{2,2-dichloro-1-[((cyanoimino){[6-(trifluoromethyl)-3-pyridinyl]amino}methyl)amino]propyl}benzamide]",5.32,,0.061,92,,
"CC(C)(C)CC(NC(=O)c1ccc(Cl)cc1)NC(=N[N+](=O)[O-])Nc1cccnc1 (single isomer, unassigned; (+)) [Example 125, (+) 4-chloro-N-(1-{[(nitroimino)(3-pyridinylamino)methyl]amino}-3,3-dimethylbutyl)benzamide]",,5.04,0.030,,92,
"CC(Cl)(Cl)C(NC(=O)c1ccc(Cl)cc1)NC(=NC#N)Nc1cccnc1Cl (stereo not shown) [Example 168, 4-chloro-N-(2,2-dichloro-1-{[[(2-chloro-3-pyridinyl)amino](cyanoimino)methyl]amino}propyl)benzamide]",6.05,,0.064,92,,

# Now from value to molecule, other results behind:
pEC50 (Sus scrofa),pEC50,SMILES,Index,Emax (Sus scrofa) [%],Efficacy (% P1075),"stimulated twitch / stimulated contractions of the bladder (P1075: 10^−9 to 10^−5 M, cumulative, ½ log increments)"
,5.11,"CC(C)(C)CC(NC(=O)c1ccc(Cl)cc1)NC(=NS(=O)(=O)C(F)(F)F)Nc1cccnc1 (single isomer, unassigned; (-)) [Example 187, (−) 4-chloro-N-{3,3-dimethyl-1-[((3-pyridinylamino){[(trifluoromethyl)sulfonyl]imino}methyl)amino]butyl}benzamide]",0.077,,52,
5.30,,"CC(Cl)(Cl)C(NC(=O)c1cccc(Cl)c1)NC(=NC#N)Nc1cccc(F)c1 (stereo not shown) [Example 169, 3-chloro-N-(2,2-dichloro-1-{[(cyanoimino)(3-fluoroanilino)methyl]amino}propyl)benzamide]",0.231,75,,
5.38,,"Cc1cccc(C(=O)NC(NC(=NC#N)Nc2ccc(Cl)nc2)C(C)(Cl)Cl)c1 (stereo not shown) [Example 170, N-(2,2-dichloro-1-{[[(6-chloro-3-pyridinyl)amino](cyanoimino)methyl]amino}propyl)-3-methylbenzamide]",0.012,100,,
5.51,,"CC(Cl)(Cl)C(NC(=O)c1cccs1)NC(=NC#N)Nc1ccc(Cl)nc1 (stereo not shown) [Example 192, N-(2,2-dichloro-1-{[[(6-chloro-3-pyridinyl)amino](cyanoimino)methyl]amino}propyl)-2-thiophenecarboxamide]",0.019,99,,
5.00,,"CC(C)(C)CC(NC(=O)c1ccc(Br)cc1)NC(=NS(=O)(=O)C(F)(F)F)Nc1cccnc1 (stereo not shown) [Example 188, 4-bromo-N-{3,3-dimethyl-1-[((3-pyridinylamino){[(trifluoromethyl)sulfonyl]imino}methyl)amino]butyl}benzamide]",0.020,87,,
6.31,,"CC(Cl)(Cl)C(NC(=O)c1cccc(Cl)c1)NC(=NC#N)Nc1ccccc1F (stereo not shown) [Example 172, 3-chloro-N-(2,2-dichloro-1-{[(cyanoimino)(2-fluoroanilino)methyl]amino}propyl)benzamide]",0.507,53,,
5.82,,"CC(Cl)(Cl)C(NC(=O)c1ccc(Cl)cc1)NC(=NC#N)Nc1ccccc1F (stereo not shown) [Example 175, 4-chloro-N-(2,2-dichloro-1-{[(cyanoimino)(2-fluoroanilino)methyl]amino}propyl)benzamide]",0.148,54,,
5.64,,"CC(Cl)(Cl)C(NC(=O)c1ccc(Cl)cc1)NC(=NC#N)Nc1ccc(F)nc1 (stereo not shown) [Example 180, 4-chloro-N-[2,2-dichloro-1-({(cyanoimino)[(6-fluoro-3-pyridinyl)amino]methyl}amino)propyl]benzamide]",0.040,98,,
